Among the data in patent US6716833B2, “Acetylenic α-amino acid-based sulfonamide hydroxamic acid tace inhibitors” (priority 1999, dated 2004) are IC50 values, retold here.

Molecules are shown by their SMILES. Counter-ions that a name gives are not always drawn.

What all share (format): biochemical
Assay [1] deals with MMP-9 (Homo sapiens, UniProt P14780). Nature of the assay: MMP-9 inhibition (thiopeptide or fluorescent peptide substrate). To be noted: read-out: MMP-9 IC50.
In assay [2] the target is T1, MMP-1 (Homo sapiens, UniProt P03956).
T1 sequence (P03956 100-469): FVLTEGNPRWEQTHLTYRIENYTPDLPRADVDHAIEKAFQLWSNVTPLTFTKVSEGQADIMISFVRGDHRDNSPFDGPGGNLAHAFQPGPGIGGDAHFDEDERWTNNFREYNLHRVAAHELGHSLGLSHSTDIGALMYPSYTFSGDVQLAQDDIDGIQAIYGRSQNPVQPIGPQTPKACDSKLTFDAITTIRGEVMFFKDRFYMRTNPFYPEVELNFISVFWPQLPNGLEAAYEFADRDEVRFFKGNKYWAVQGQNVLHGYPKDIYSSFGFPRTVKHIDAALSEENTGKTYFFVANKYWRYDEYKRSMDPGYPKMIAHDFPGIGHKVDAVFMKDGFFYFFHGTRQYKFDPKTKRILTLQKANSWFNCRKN
Nature of the assay: MMP-1 inhibition (thiopeptide or fluorescent peptide substrate). To be noted: read-out: MMP-1 IC50.
Experimental: The enzyme activity is measured by the rate of the color increase. The thiopeptide substrate is made up fresh as a 20 mM stock in 100% DMSO and the DTNB is dissolved in 100% DMSO as a 100 mM stock and stored in the dark at room temperature. Both the substrate and DTNB are diluted together to 1 mM with substrate buffer (50 mM HEPES pH 7.5, 5 mM CaCl2) before use. The stock of enzyme is diluted with buffer (50 mM HEPES, pH 7.5, 5 mM CaCl2, 0.02% Brij) to the desired final concentration.
Alternatively, a fluorescent peptide substrate is used. In this test procedure, the peptide substrate contains a fluorescent group and a quenching group. Upon cleavage of the substrate by an MMP, the fluorescence that is generated is quantitated on the fluorescence plate reader. The assay is run in HCBC assay buffer (50 mM HEPES, pH 7.0, 5 mM Ca^+2, 0.02% Brij, 0.5% Cysteine), with human recombinant MMP-1, MMP-9, or MMP-13. […] For the assay, substrate and enzymes are diluted in HCBC buffer to the desired concentrations. Compounds are added to the 96 well plate containing enzyme and the reaction is started by the addition of substrate.
For either the thiopeptide or fluorescent peptide test procedures, the slope of the line is calculated and represents the reaction rate. The linearity of the reaction rate is confirmed (r^2>0.85). The mean (x±sem) of the control rate is calculated and compared for statistical significance (p<0.05) with drug-treated rates using Dunnett's multiple comparison test.

Assay [3] has as its target MMP-13 (Homo sapiens, UniProt P45452). The experiment in a line: MMP-13 inhibition (thiopeptide or fluorescent peptide substrate). Particulars: read-out: MMP-13 IC50.
In assay [4] the target is TNF-α converting enzyme (TACE) (Homo sapiens, UniProt P78536). Nature of the assay: TACE inhibition (fluorescent peptidyl substrate). Particulars: read-out: TACE IC50.
TNF-α converting enzyme (TACE), sequence (P78536 215-824, species assumed): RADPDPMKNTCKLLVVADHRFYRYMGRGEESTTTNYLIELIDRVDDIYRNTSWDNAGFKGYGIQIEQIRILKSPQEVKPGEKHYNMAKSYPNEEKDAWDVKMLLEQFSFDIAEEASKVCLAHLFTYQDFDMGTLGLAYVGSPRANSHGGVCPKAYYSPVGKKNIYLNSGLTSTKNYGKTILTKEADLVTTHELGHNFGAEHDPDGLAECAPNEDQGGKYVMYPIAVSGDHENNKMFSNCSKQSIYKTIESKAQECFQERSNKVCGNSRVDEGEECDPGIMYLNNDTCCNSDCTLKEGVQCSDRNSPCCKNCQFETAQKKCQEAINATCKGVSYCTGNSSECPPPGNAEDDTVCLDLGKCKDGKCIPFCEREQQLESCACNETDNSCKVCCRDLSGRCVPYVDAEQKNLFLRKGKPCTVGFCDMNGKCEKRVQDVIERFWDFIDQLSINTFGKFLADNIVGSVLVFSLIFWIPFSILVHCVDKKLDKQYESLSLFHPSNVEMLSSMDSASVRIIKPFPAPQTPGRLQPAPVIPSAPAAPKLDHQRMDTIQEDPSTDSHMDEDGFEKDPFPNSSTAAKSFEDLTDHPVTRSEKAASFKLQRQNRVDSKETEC

MMP-9, sequence (P14780 94-707): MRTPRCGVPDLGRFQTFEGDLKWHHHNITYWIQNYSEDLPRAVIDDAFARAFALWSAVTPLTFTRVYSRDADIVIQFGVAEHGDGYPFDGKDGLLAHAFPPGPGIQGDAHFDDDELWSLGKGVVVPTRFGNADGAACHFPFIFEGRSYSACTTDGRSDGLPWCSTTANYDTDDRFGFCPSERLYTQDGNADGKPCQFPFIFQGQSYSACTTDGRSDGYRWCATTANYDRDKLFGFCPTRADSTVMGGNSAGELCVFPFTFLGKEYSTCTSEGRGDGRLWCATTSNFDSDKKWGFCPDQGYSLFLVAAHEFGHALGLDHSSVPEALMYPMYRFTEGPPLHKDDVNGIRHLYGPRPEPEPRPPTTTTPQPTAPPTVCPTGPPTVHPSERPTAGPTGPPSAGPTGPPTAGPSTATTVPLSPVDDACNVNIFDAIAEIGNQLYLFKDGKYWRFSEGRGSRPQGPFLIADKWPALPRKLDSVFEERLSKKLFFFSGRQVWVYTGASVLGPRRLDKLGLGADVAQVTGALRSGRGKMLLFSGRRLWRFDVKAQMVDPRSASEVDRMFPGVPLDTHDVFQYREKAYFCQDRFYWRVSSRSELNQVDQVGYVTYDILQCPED

As for `CC#CCOc1ccc(S(=O)(=O)N2CCN(C(=O)OC(C)(C)C)CC2C(=O)NO)cc1` (stereo not drawn) [Example 58, 4-(4-but-2-ynyloxy-Benzenesulfonyl)-3-hydroxycarbamoyl-piperazine-1-carboxylic Acid tert-Butyl Ester], the IC50 in assay [1] came out at 0.024 µM; in assay [2], 0.456 µM; in assay [3], 0.017 µM; in assay [4], 0.021 µM.

On to `CC#CCOc1ccc(S(=O)(=O)N(CC)C(C(=O)NO)C(C)C)cc1` (stereo not drawn) [Example 108, 2-[(4-but-2-ynyloxy-Benzenesulfonyl)-ethyl-amino]-N-hydroxy-3-methyl-butyramide], for which the 50% inhibitory concentration (IC50) was determined as 0.119 µM in assay [1], 0.092 µM in assay [2], 0.067 µM in assay [3] and 0.033 µM in assay [4].

In the case of `C#CCN(C(C(=O)NO)C(C)C)S(=O)(=O)c1ccc(OCC#CC)cc1` (stereo not drawn) [Example 109, 2-[{[4-(2-Butynyloxy)phenyl]sulfonyl}(2-propynyl)amino]-N-hydroxy-3-methylbutanamide], the IC50 in assay [1] was determined as 0.233 µM; in assay [2], 0.21 µM; in assay [3], 0.053 µM; in assay [4] it was 0.055 µM.

Regarding `CC#CCOc1ccc(S(=O)(=O)N(CCC)C(C(=O)NO)C(C)C)cc1` (stereo not drawn) [Example 110, 2[(4-but-2-ynyloxy-Benzenesulfonyl)-propyl-amino]-N-hydroxy-3-methyl-butyramide], the IC50 stood at 0.477 µM in assay [1], 0.196 µM in assay [2], 0.153 µM in assay [3] and 0.066 µM in assay [4].

For the compound `CC#CCOc1ccc(S(=O)(=O)N(CCCc2ccccc2)C(C(=O)NO)C(C)C)cc1` (stereo not drawn) [Example 111, 2-[(4-but-2-ynyloxy-Benzenesulfonyl)-(3-phenyl-propyl)-amino]-N-hydroxy-3-methyl-butyramide], the IC50 in assay [1] was 1.42 µM; in assay [2], 0.308 µM; in assay [3], 0.303 µM; in assay [4] it was 0.481 µM.

On to `CC#CCOc1ccc(S(=O)(=O)N(CC2CC2)C(C(=O)NO)C(C)C)cc1` (stereo not drawn) [Example 112, 2-[(4-but-2-ynyloxy-Benzenesulfonyl)-cyclopropylmethyl-amino]-N-hydroxy-3-methyl-butyramide], for which the half-maximal inhibitory concentration (IC50) in assay [1] amounted to 0.397 µM; in assay [2], 0.189 µM; in assay [3], 0.142 µM; in assay [4], 0.057 µM.

With `CC#CCOc1ccc(S(=O)(=O)N(CC(C)C)C(C(=O)NO)C(C)C)cc1` (stereo not drawn) [Example 113, 2-[(4-but-2-ynyloxy-Benzenesulfonyl)-isobutyl-amino]-N-hydroxy-3-methyl-butyramide], the half-maximal inhibitory concentration (IC50) in assay [1] was 0.918 µM; in assay [2] it was 0.299 µM; in assay [3], 0.309 µM; in assay [4] it was 0.107 µM.

Turning to `CC#CCOc1ccc(S(=O)(=O)N(Cc2cccnc2)C(C(=O)NO)C(C)C)cc1` (stereo not drawn) [Example 114, 2-[(4-but-2-ynyloxy-Benzenesulfonyl)-pyridin-3-ylmethyl-amino]-N-hydroxy-3-methyl-butyramide], the concentration for half-maximal inhibition (IC50) stood at 0.193 µM in assay [1], 0.236 µM in assay [2], 0.094 µM in assay [3] and 0.093 µM in assay [4].

As to `CC#CCOc1ccc(S(=O)(=O)N(C)C(C(=O)NO)C2CCCCC2)cc1` (stereo not drawn) [Example 115, 2-[(4-but-2-ynyloxy-Benzenesulfonyl)-methyl-amino]-2-cyclohexyl-N-hydroxy-acetamide], the half-maximal inhibitory concentration (IC50) in assay [1] is 0.014 µM; in assay [2], 0.094 µM; in assay [3], 0.0066 µM; in assay [4] it was 0.031 µM.

Turning to `CC#CCOc1ccc(S(=O)(=O)N(Cc2cccnc2)[C@@H](C(=O)NO)C2CCCCC2)cc1` [Example 116, 2-[(4-but-2-ynyloxy-Benzenesulfonyl)-pyridin-3-ylmethyl-amino]-2-cyclohexyl-N-hydroxy-acetamide], the IC50 in assay [1] was found to be 0.336 µM; in assay [2] it was 0.218 µM; in assay [3] it was 0.053 µM; in assay [4] it was 0.204 µM.

In the case of `CC#CCOc1ccc(S(=O)(=O)N(CCCN(CC)CC)C(C(=O)NO)C(C)C)cc1` (stereo not drawn) [Example 118, 2-{{[4-(2-Butynyloxy)phenyl]sulfonyl}[3-(diethylamino)propyl]amino}-N-hydroxy-3-methylbutanamide], the IC50 worked out at 0.086 µM in assay [1], 0.121 µM in assay [2], 0.045 µM in assay [3] and 0.154 µM in assay [4].

`CC#CCOc1ccc(S(=O)(=O)N(CCCN2CCOCC2)C(C(=O)NO)C(C)C)cc1` (stereo not drawn) [Example 119, 2-{{[4-(2-Butynyloxy)phenyl]sulfonyl}[3-(4-morpholinyl)propyl]amino}-N-hydroxy-3-methylbutanamide]: the half-maximal inhibitory concentration (IC50) in assay [1] came out at 0.094 µM; in assay [2], 0.129 µM; in assay [3], 0.046 µM; in assay [4], 0.124 µM.

Turning to `CC#CCOc1ccc(S(=O)(=O)N(CCCN2CCN(C)CC2)C(C(=O)NO)C(C)C)cc1` (stereo not drawn) [Example 120, 2-{{[4-(2-Butynyloxy)phenyl]sulfonyl}[3-(4-methyl-1-piperazinyl)propyl]amino}-N-hydroxy-3-methylbutanamide Hydrochloride], the 50% inhibitory concentration (IC50) in assay [1] amounted to 0.211 µM; in assay [2], 0.111 µM; in assay [3] it was 0.161 µM; in assay [4] it was 0.149 µM.

`CC#CCOc1ccc(S(=O)(=O)N(CCCCN(CC)CC)C(C(=O)NO)C(C)C)cc1` (stereo not drawn) [Example 121, 2-{{[4-(2-Butynyloxy)phenyl]sulfonyl}[4-(diethylamino)butyl]amino}-N-hydroxy-3-methylbutanamide]: the half-maximal inhibitory concentration (IC50) in assay [1] amounted to 0.256 µM; in assay [2], 0.12 µM; in assay [3], 0.114 µM; in assay [4], 0.177 µM.

With `CC#CCOc1ccc(S(=O)(=O)N(CCCCN2CCN(C)CC2)C(C(=O)NO)C(C)C)cc1` (stereo not drawn) [Example 122, 2-{{[4-(2-Butynyloxy)phenyl]sulfonyl}[4-(4-methyl-1-piperazinyl)butyl]amino}-N-hydroxy-3-methylbutanamide], the IC50 in assay [1] worked out at 0.135 µM; in assay [2] it was 0.086 µM; in assay [3], 0.05 µM; in assay [4], 0.128 µM.

Take `CC#CCOc1ccc(S(=O)(=O)N(CCN2CCOCC2)C(C(=O)NO)C(C)C)cc1` (stereo not drawn) [Example 123, 2-[[[4-(2-Butynyloxy)phenyl]sulfonyl][2-(4-morpholinyl)ethyl]amino]-N-hydroxy-3-methylbutanamide]: the IC50 in assay [1] stood at 0.628 µM; in assay [2], 0.244 µM; in assay [3], 0.089 µM; in assay [4], 0.102 µM.

For the compound `CC#CCOc1ccc(S(=O)(=O)N(CCN2CCOCC2)CC(=O)NO)cc1` [Example 124, 2-[{[4-(but-2-ynyloxy)Phenyl]sulfonyl}(2-morpholin-4-ylethyl)amino]-N-hydroxyacetamide Hydrochloride], the IC50 in assay [1] stood at 0.211 µM; in assay [2] it was 1.77 µM; in assay [3], 0.054 µM; in assay [4], 0.013 µM.

As for `CC#CCOc1ccc(S(=O)(=O)N(CC#CCN2CCN(C)CC2)C(C(=O)NO)C(C)C)cc1` (stereo not drawn) [Example 125, 2-{{[4-(2-Butynyloxy)phenyl]sulfonyl}[4-(4-methyl-1-piperazinyl)-2-butynyl]amino}-N-hydroxy-3-methylbutanamide], the IC50 is 0.846 µM in assay [1], 0.505 µM in assay [2], 0.151 µM in assay [3] and 0.108 µM in assay [4].
